The values that follow come from US20250332173A1, “COMPOUNDS AND METHODS FOR MODULATING NUCLEIC ACID SPLICING” (REMIX THERAPEUTICS INC., priority 2021, published 2025).

Common to all, as to assay type: cell-based, human
The subject of assay [1] is Target C. As to the kind of experiment: HiBiT protein abundance assay, Target C (Promega Nano-Glo HiBiT Lytic Detection System, knock-in K562 cell line). The conditions noted are these: Homo sapiens, K562, 24 h, HiBiT K562 cell line, 24 hours, top dose 10 μM; read-out: Effect on protein abundance, Target C (IC50 category). In a few lines: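 Knock-in K562 cells carrying HiBiT-tagged Target C, 10,000 per well, treated 24 h at 37 °C with 10-point threefold dilutions (top 10 μM final, ≤0.25% DMSO). Lytic HiBiT luminescence read; response normalised to unmodified K562 and DMSO controls, four-parameter fit interpolated at 50% for IC50.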

The test system of assay [2] is Target C. As to the kind of experiment: RT-qPCR splicing assay panel, Target C canonical junction (CJ) mRNA. The note with it: Homo sapiens; Table 5 panel; canonical junction qPCR; compound concentration having 50% response in CJ decrease; read-out: Target C IC50 (decrease in CJ mRNA levels). In a few lines: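 Canonical-junction transcript levels in compound-treated A673 or K562 cells (24 h, up to 10 uM final) were determined from lysates by RT-qPCR with housekeeping-gene normalization.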

The subject of assay [3] is MYB. The experiment in a line: HiBiT protein abundance assay, MYB HiBiT K562 cell line. The note with it: HiBiT K562 cell line, 24 hours, top dose 10 μM; read-out: Effect on protein abundance, MYB (IC50 category). The method, boiled down:
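K562 knock-in lines with endogenous HiBiT-tagged target, 10,000 cells/well in IMDM + FBS, treated 24 h at 37° C with 10-point 3-fold dilutions (top 10 μM final; DMSO ≤0.25%). Lytic Nano-Glo HiBiT luminescence normalized to untagged K562 baseline and DMSO controls; IC50 = concentration giving 50% abundance via four-parameter fit.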

The structures appear in SMILES notation. Bounds are passed on as bounds.

As usually defined, the IC50 is the concentration at which inhibition is half-maximal. As for `CNc1cc(-c2cc(C)c3nc(C)cn3n2)cc2ccn([C@@H]3CCNC3)c(=O)c12` [Compound 648, 6-(2,8-dimethylimidazo[1,2-b]pyridazin-6-yl)-8-(methylamino)-2-[(3R)-pyrrolidin-3-yl]isoquinolin-1-one], the IC50 is above 10 µM in assay [1], above 10 µM in assay [2] and 1 to 10 µM in assay [3].

Consider `CC(=O)Nc1cc(-c2cc(C)c3nc(C)cn3n2)cc2ccn([C@H]3CCNC3)c(=O)c12` [Compound 649, N-[6-(2,8-dimethylimidazo[1,2-b]pyridazin-6-yl)-1-oxo-2-[(3S)-pyrrolidin-3-yl]-8-isoquinolyl]acetamide], for which the figures for the IC50 in assay [1], in assay [2] and in assay [3] were 1 to 10 µM, above 10 µM and 1 to 10 µM, respectively.

Regarding `CC(=O)Nc1cc(-c2cc(C)c3nc(C)cn3n2)cc2ccn([C@@H]3CCNC3)c(=O)c12` [Compound 650, N-[6-(2,8-dimethylimidazo[1,2-b]pyridazin-6-yl)-1-oxo-2-[(3R)-pyrrolidin-3-yl]-8-isoquinolyl]acetamide], the IC50 in assay [1], in assay [2] and in assay [3] was above 10 µM throughout.

In the case of `Cc1cn2cc(-c3cc(F)c4c(=O)n(C5CC(C)NC(C)C5)ccc4c3)cc(F)c2n1` (stereo not drawn) [Compound 651], the IC50 in assay [1] was 0.1 to 1 µM; in assay [2] it was 0.1 to 1 µM; in assay [3], below 0.1 µM.

Consider `Cc1cn2cc(-c3cc(F)c4c(=O)n([C@H]5CNC[C@H]5C)ccc4c3)cc(F)c2n1` [Compound 652, 8-fluoro-6-(8-fluoro-2-methyl-imidazo[1,2-a]pyridin-6-yl)-2-[(3R,4R)-4-methylpyrrolidin-3-yl]isoquinolin-1-one], for which the values for the IC50 in assay [1], in assay [2] and in assay [3] were above 10 µM, above 10 µM and 1 to 10 µM, respectively.

With `Cc1cn2cc(-c3cc(F)c4c(=O)n([C@@H]5CNC[C@@H]5C)ccc4c3)cc(F)c2n1` [Compound 653, 8-fluoro-6-(8-fluoro-2-methyl-imidazo[1,2-a]pyridin-6-yl)-2-[(3S,4S)-4-methylpyrrolidin-3-yl]isoquinolin-1-one], the IC50 in assay [1] is above 10 µM; in assay [2], above 10 µM; in assay [3] it was 1 to 10 µM.

For the compound `Cn1cc2cc(-c3ncc4c(=O)n(C5CCNCC5)ccc4n3)c(O)c(F)c2n1` [Compound 1123], the IC50 in assay [1] is below 0.1 µM; in assay [2], 0.1 to 1 µM; in assay [3], below 0.1 µM.
